Data reported in patent US8338429B2, “2-acylaminothiazole derivative or salt thereof” (Astellas Pharma, Inc., priority 2002, dated 2012).
Where a name gives a salt, the structure may show the parent alone.

What was measured:
[1] = test system: human c-mpl-Ba/F3 cells; assay: Human c-mpl-Ba/F3 cell proliferation test; format: cell-based; details: for pot.: concentration promoting cell proliferation to 30% of maximum cell proliferation activity value of Example 9 (of rhTPO for rhTPO), 24 hours culture; for Efficacy: maximum cell proliferation activity, maximum of Example 9 (of rhTPO for rhTPO) set to 100%
Procedure: In a 96 well microplate, 2×10^5 cells/ml of human c-mpl-Ba/F3 cells were cultured at 37° C. for 24 hours with 10% fetal bovine serum containing a RPMI1640 medium (100 μl/well) to which varied concentrations of tested compounds were respectively added. After the culturing, 10 μl/well of WST-1/1-methoxy PMS (cell counting kit, Dojindo) were added. Immediately after the adding and after 2 hours, absorbance of A450/A650 was measured with a microplate reader (Model 3350:Bio-Rad), and the absorbance increase after 2 hours was regarded as proliferation activity of each tested compound.
pot.: Concentration of tested compound for promoting cell proliferation of the compound of Example 9 (compound of Example 9 and rhTPO in rhTPO) to 30% of maximum cell proliferation activity value.
Efficacy: Maximum cell proliferation activity value of tested compound when the maximum cell proliferation activity value of the compound of Example 9 (compound of Example 9 and rhTPO in rhTPO) is set to 100%.

[2] = test system: human c-mpl-Ba/F3 cells; assay: Oral administration test for mice (c-mpl-Ba/F3 proliferation activity of plasma); format: in vivo; details: male ICR mice, final plasma concentration 10%, maximum of each tested compound = 100%
Procedure: To male ICR mice, a tested compound dissolved or suspended in 0.5% methylcellulose aqueous solution was orally administrated in an amount of 100 mg/kg or 10 mg/kg. […] Plasma obtained by centrifugation at 12,000 rpm for 3 minutes was warmed up at 56° C. for 30 minutes, and added to the human c-mpl.Ba/F3 cell proliferation system described in (i) such that the final plasma concentration became 10%, and then cell proliferation activity was measured. The cell proliferation activity (%) of each plasma batch, when maximum cell proliferation activity of each tested compound was set to 100%, was calculated.

[3] = test system: Human CD34+ cells; assay: Test for measuring effects of promoting the formation of megakaryocytic colonies; format: cell-based; details: megakaryocytic colonies per well, 10-14 days
Procedure: Human CD34^+ cells were cultured at 37° C. for 10-14 days in the presence of tested materials in a 2 well chamber slide, using MegaCult™-C (Stem Cell Technologies). In accordance with the attached instructions, dehydration, fixing, and staining with antihuman glycoprotein IIb/IIIa antibody were carried out. A group of 3 or more stained megakaryocytes was regarded as 1 colony, and the number of colonies per well was measured with a microscope. EC30 values of each tested compound were calculated from a capacity curve.

[4] = plasma 2 hours after 100 mg/kg p.o.
[5] = plasma 2 hours after 10 mg/kg p.o.

Row | Compound | pot. [1] [nM] | Efficacy [1] [%] | Cell proliferation activity [2, 4] [%] | EC30 [3] [µM] | Cell proliferation activity [2, 5] [%]
1 | O=C1NC(=S)S/C1=C\c1ccc(C(=O)Nc2nc(-c3ccc(Cl)c(Cl)c3)cs2)cc1 [Control 1, reference compound] | 4.4 | 101 | <10 |  | 
2 | O=C(O)/C(Cl)=C/c1ccc(C(=O)Nc2nc(-c3ccc(Cl)c(Cl)c3)cs2)cc1 [Control 2, reference compound] | 2.1 | 96 | <10 |  | 
3 | Cc1sc(NC(=O)c2ccc(/C=C(\Cl)C(=O)O)cc2)nc1-c1cccc(C(F)(F)F)c1 [Control 3, reference compound] | 6.9 | 96 | <10 |  | 
4 | O=C(Nc1nc(-c2cc(Cl)cs2)c(N2CCN(C3CCCCC3)CC2)s1)c1ccc(OCCO)c(Cl)c1 [Example 9, 3-chloro-N-[4-(4-chlorothiophen-2-yl)-5-(4-cyclohexylpiperazin-1-yl)thiazol-2-yl]-4-(2-hydroxyethoxy)benzamide hydrochloride] | 10 | 87 |  | 0.012 | 
5 | Cl.O=C(Nc1nc(-c2cc(Cl)cs2)c(N2CCN(C3CCCCC3)CC2)s1)c1cnc(N2CCC(C(=O)O)CC2)c(Cl)c1 [Example 16, 1-(3-chloro-5-{[4-(4-chlorothiophen-2-yl)-5-(4-cyclohexylpiperzain-1-yl)thiazol-2-yl]carbamoyl}pyridin-2-yl)piperidine-4-carboxylic acid hydrochloride] | 2.4 | 93 |  |  | >80
6 | CCCC1CCN(c2sc(NC(=O)c3ccnc(OC)c3)nc2-c2cc(Cl)cs2)CC1 [Example 66] | 14 | 99 |  | 0.047 | 61
7 | CCCN1CCN(c2sc(NC(=O)c3ccc(OCCO)c(Cl)c3)nc2-c2cc(Cl)cs2)CC1 [Example 103, 3-chloro-N-[4-(4-chlorothiophen-2-yl)-5-(4-propylpiperazin-1-yl)thiazol-2-yl]-4-(2-hydroxyethoxy)benzamide] | 18 | 97 |  |  | 
8 | O=C(Nc1nc(-c2cc(Cl)cs2)c(N2CCN(C3CCCCC3)CC2)s1)c1ccc2cnccc2c1 [Example 214, N-[4-(4-chlorothiophen-2-5-yl)-5-(4-cyclohexylpiperazin-1-yl)thiazol-2-yl]isoquinoline-6-carboxamide] | 15 | 106 |  |  | >80
9 | O=C(Nc1nc(-c2cc(Cl)cs2)c(N2CCN(C3CCCCC3)CC2)s1)c1cnc(OCCCO)c(Cl)c1 [Example 250, 5-chloro-N-[4-(4-chlorothiophen-2-yl)-5-(4-cyclohexylpiperazin-1-yl)thiazol-2-yl]-6-(3-hydroxypropoxy)nicotinamide] | 6.7 | 87 |  | 0.026 | >80
10 | rhTPO: thrombopoietin (TPO), a c-Mpl ligand playing an important role in differentiation into megakaryocytes | 0.012 | 100 |  |  | 
